Source: ChEMBL document CHEMBL1122462, “Potential antiatherosclerotic agents. 4. [(Functionalized-alkyl)amino]benzoic acid analogues of cetaben” (1983)

Experiments:
[1] = biological target: T1, Sterol O-acyltransferase 1 (Rattus norvegicus) (UniProt O70536); assay: In vitro inhibitory activity against acyl coenzyme A:cholesterol acyltransferase; design: concentration or dose not given beside the values; settings: concentration not given here
T1 sequence (whole entry): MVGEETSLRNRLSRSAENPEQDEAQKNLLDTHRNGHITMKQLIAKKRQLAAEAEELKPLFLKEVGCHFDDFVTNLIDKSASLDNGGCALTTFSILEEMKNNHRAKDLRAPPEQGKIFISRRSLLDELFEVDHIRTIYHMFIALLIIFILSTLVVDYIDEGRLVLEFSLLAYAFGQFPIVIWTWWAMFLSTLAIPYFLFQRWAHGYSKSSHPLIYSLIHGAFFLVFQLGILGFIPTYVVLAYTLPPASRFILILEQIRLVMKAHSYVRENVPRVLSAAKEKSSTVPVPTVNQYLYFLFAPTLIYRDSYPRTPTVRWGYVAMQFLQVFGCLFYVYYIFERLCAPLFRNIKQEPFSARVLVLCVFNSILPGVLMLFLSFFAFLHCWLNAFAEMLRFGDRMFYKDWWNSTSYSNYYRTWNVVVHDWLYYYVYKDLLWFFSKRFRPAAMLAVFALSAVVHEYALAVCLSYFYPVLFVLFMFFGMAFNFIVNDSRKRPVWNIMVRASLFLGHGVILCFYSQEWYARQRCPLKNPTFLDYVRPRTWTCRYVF

Rattus norvegicus [2] = assay: In vivo Sterol lowering activity at dose as 0.01% of the diet; type: functional
Rattus norvegicus [3] = assay: In vivo sterol lowering activity, dosed as 0.03 % of the diet; type: functional
Rattus norvegicus [4] = assay: In vivo sterol lowering activity at dose of 0.10 % of the diet; type: functional
Rattus norvegicus [5] = assay: In vivo Triglyceride lowering activity at dose as 0.03 % of the diet; type: functional
Rattus norvegicus [6] = assay: In vivo Triglyceride lowering activity at a dose of 0.10 % of the diet; type: functional
Rattus norvegicus [7] = assay: In vivo Triglyceride lowering activity at dose as 0.01 % of the diet; type: functional

| inhibition [1] [%] | Structure (SMILES) | serum sterol level, percent of control (Rattus norvegicus [2]) [%] | serum sterol level, percent of control (Rattus norvegicus [3]) [%] | serum sterol level, % of control (Rattus norvegicus [4]) [%] | triglyceride lowering activity (Rattus norvegicus [5]) [%] | serum triglyceride level (% of control) (Rattus norvegicus [6]) [%] | serum triglyceride level (% of control) (Rattus norvegicus [7]) [%] |
| --- | --- | --- | --- | --- | --- | --- | --- |
| < 59 | CC(C)(C)CCCCCCCCCCCCNc1ccc(C(=O)O)cc1 | 94 | <77 | <75 | <53 | <26 | <75 |
| < 54 | O=C(O)c1ccc(NCCCCCCCCCCCSCc2ccccc2)cc1 | 99 | 95 | 90 | <52 | <51 | <55 |
| 18 | CCCCCCCCCCC(=O)CCCCCNc1ccc(C(=O)O)cc1 | 95 | 90 | <84 | <68 | <46 | <63 |
| < 21 | CCOC(=O)c1ccc(NC(=O)CCCCCCCCCCCCC[Si](C)(C)C)cc1 | 99 | 98 | 101 | 91 | 97 | 99 |

Continued, molecule first:

| Structure (SMILES) | inhibition [1] [%] | serum sterol level, percent of control (Rattus norvegicus [2]) [%] | serum sterol level, percent of control (Rattus norvegicus [3]) [%] | serum sterol level, % of control (Rattus norvegicus [4]) [%] | triglyceride lowering activity (Rattus norvegicus [5]) [%] | serum triglyceride level (% of control) (Rattus norvegicus [6]) [%] | serum triglyceride level (% of control) (Rattus norvegicus [7]) [%] |
| --- | --- | --- | --- | --- | --- | --- | --- |
| O=C(O)c1ccc(NCCCCCCCCCCCO)cc1 | < 30 | 93 | 95 | 99 | 101 | 78 | 111 |
| CCOC(=O)c1ccc(NCCCCCCCCCCCCCCCC(=O)O)cc1 | 4 | 100 | 106 | 106 | 133 | 147 | 99 |
| CCOC(=O)c1ccc(NCCCCCCCCCCCCCCC(C)C)cc1 | 0 | 87 | <85 | <80 | <54 | <58 | <66 |
| CCCCCC(=O)CCCCCCCCCCNc1ccc(C(=O)OCC)cc1 | < 44 | 99 | 100 | 89 | <58 | <42 | <64 |
| C[Si](C)(C)CCCCCCCCCCCCCCNc1ccc(C(=O)O)cc1 |  | <70 | <51 | <40 | <38 | <30 | <59 |
| O=C(O)c1ccc(NCCCCCCCCCCCCCCCC(F)(F)F)cc1 |  | <75 | <72 | <61 | <41 | <42 | <46 |
| C[Si](C)(C)CCCCCCCCCCCCCCNc1ccc(C(=O)[O-])cc1.[Na+] |  | 75 | <56 | <39 | <43 | <22 | <55 |
| C[Si](C)(C)CCCNc1ccc(C(=O)O)cc1 |  | 100 | 90 | <82 | <58 | <47 | <69 |
